target: Tyrosine-protein kinase Lck (Homo sapiens, UniProt P06239); assay: Inhibitory concentration against phosphorylation of angiotensin I catalyzed by protein-tyrosine kinase p56lck
Sequence (P06239 whole entry): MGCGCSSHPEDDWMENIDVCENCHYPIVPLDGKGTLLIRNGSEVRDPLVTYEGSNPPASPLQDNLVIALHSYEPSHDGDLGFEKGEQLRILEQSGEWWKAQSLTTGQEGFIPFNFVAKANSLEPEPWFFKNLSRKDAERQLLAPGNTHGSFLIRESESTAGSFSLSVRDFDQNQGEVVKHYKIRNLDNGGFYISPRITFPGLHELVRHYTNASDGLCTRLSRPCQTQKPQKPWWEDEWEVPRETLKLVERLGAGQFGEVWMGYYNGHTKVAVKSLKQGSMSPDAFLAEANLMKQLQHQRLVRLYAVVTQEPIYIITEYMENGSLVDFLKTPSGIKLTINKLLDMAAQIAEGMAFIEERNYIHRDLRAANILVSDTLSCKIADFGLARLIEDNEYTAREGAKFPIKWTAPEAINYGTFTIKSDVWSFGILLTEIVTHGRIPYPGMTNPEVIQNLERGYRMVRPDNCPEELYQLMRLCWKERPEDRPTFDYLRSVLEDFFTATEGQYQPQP

COc1ccc(N/N=C/c2cccc(O)c2O)cc1 and COc1ccc(N/N=C/c2cc(O)ccc2O)cc1 are the same in IC50: 0.31 mM for the first, 0.31 mM for the second.

Going from C(=N\Nc1ccccc1)/c1ccncc1 to C(=N\Nc1ccccc1)/c1cccnc1, the IC50 falls from greater than 4.06 mM to 1.32 mM.

Going from O=[N+]([O-])c1ccc(N/N=C/c2ccc(O)c(O)c2O)c([N+](=O)[O-])c1 to O=[N+]([O-])c1ccc(N/N=C/c2cccc(O)c2O)c([N+](=O)[O-])c1, the IC50 rises from 0.144 mM to greater than 2.51 mM.

First: COc1ccc(/C=N/Nc2ccc(Br)cc2)cc1O
Second: Oc1ccc(/C=N/Nc2ccc(Br)cc2)cc1O
The IC50 of the first is higher: greater than 2.49 mM for the first, 0.599 mM for the second. The second is the more potent here.

COc1cc(/C=N/Nc2ccccc2)ccc1O and COc1ccc(/C=N/Nc2ccccc2)cc1O are within 1.5-fold of each other in IC50: 2.59 mM for the first, 2.11 mM for the second.

Oc1ccc(/C=N/Nc2ccccn2)cc1O and Oc1cc(/C=N/Nc2ccccn2)cc(O)c1O are within 1.5-fold of each other in IC50: 0.227 mM for the first, 0.179 mM for the second.

Compared with Oc1ccc(/C=N/Nc2ccc(Br)cc2)c(O)c1O, Oc1ccc(/C=N/Nc2ccc(Br)cc2)c(O)c1 is 2-fold lower in IC50: 1.04 mM for the first, 0.521 mM for the second.

O=[N+]([O-])c1cccc(/C=N/Nc2ccccc2)c1 and O=[N+]([O-])c1ccc(/C=N/Nc2ccccc2)cc1 cannot be ordered by IC50: greater than 3.32 mM for the first, greater than 3.32 mM for the second.

Compared with O=[N+]([O-])c1ccc(N/N=C/c2ccc(O)cc2O)c([N+](=O)[O-])c1, O=[N+]([O-])c1ccc(N/N=C/c2ccc(O)c(O)c2)c([N+](=O)[O-])c1 is 2.8-fold lower in IC50: 1 mM for the first, 0.352 mM for the second.

Compared with Oc1ccc(/C=N/Nc2ccccn2)c(O)c1, Oc1ccc(/C=N/Nc2ccccn2)c(O)c1O is 1.9-fold lower in IC50: 1.01 mM for the first, 0.522 mM for the second.

First: Oc1ccc(O)c(/C=N/Nc2ccccc2)c1
Second: Oc1ccc(/C=N/Nc2ccccc2)c(O)c1
The IC50 of the first is higher: greater than 3.5 mM for the first, 0.35 mM for the second.

Brc1ccc(N/N=C/c2ccncc2)cc1 and Brc1ccc(N/N=C/c2cccnc2)cc1 cannot be ordered by IC50: greater than 2.9 mM for the first, greater than 2.9 mM for the second.

Brc1ccc(N/N=C/c2ccccn2)cc1 and C(=N\Nc1ccccc1)/c1ccccn1 cannot be ordered by IC50: greater than 2.9 mM for the first, greater than 4.06 mM for the second.

Oc1cccc(/C=N/Nc2ccccc2)c1O and Oc1ccc(/C=N/Nc2ccccc2)c(O)c1O are within 1.5-fold of each other in IC50: 1.26 mM for the first, 1.57 mM for the second.

Compared with Oc1ccc(/C=N/Nc2ccccc2)cc1O, Oc1ccc(Br)cc1/C=N/Nc1ccccc1 is higher in IC50: 0.07 mM for the first, greater than 2.6 mM for the second. The first is the more potent here.

First: C(=N\Nc1ccccn1)/c1cccnc1
Second: COc1ccc(N/N=C/c2ccc(O)c(O)c2)cc1
The IC50 of the first is 1.9-fold lower: 0.4 mM for the first, 0.743 mM for the second. The first is the more potent here.

In the case of Oc1ccc(Br)cc1/C=N/Nc1ccc(Br)cc1, the IC50 is reported as greater than 2.16 mM.

From ChEMBL document CHEMBL1125983, “Synthesis and evaluation of new protein-tyrosine kinase inhibitors. Part 2. Phenylhydrazones” (Bioorg Med Chem Lett, 1991)
